Results on four compounds are retold here after ChEMBL document CHEMBL1949648, “Synthesis and neurite growth evaluation of new analogues of honokiol, a neolignan with potent neurotrophic activity” (2012).

The subject of assay [1] is N2a. The assay is described as follows: Induction of neurite outgrowth in mouse Neuro2a cells at 1 uM after 48 hrs by morphometric analysis relative to control. The format is functional.
Assay [2] concerns N2a. Kind of assay: Induction of neurite outgrowth in mouse Neuro2a cells at 0.1 uM after 48 hrs by morphometric analysis relative to control. The format is functional.

`C=CCc1ccc(OC)c(-c2ccc(OC)c(C(=O)c3cn(Cc4ccccc4)nn3)c2)c1` registered an Activity in assay [1] of 6.87%. Same read-out and setting: next, `C=CCc1ccc(O)c(-c2ccc(O)c(CC=C)c2)c1` [HONOKIOL]: 41.03%; `C=CCc1ccc(O)c(-c2ccc(O)c(-c3ccc(C(=O)OCC)c(C)n3)c2)c1`: 5.78%. As to `C=CCc1ccc(OC)c(-c2ccc(O)c(-c3ccn(C)n3)c2)c1`, in assay [2], the Activity is on record as 5.89%.
